Laboratory results published in patent publication US5834431A, “Des-Arg^9 -BK antagonists” (Cortech, Inc., priority 1995, dated 1998).
Ends that are not written are not given here.

Key:
[1] = Stability in rat lung membranes; assay type: in vitro ADME; settings: Rat Lung Membranes, 37° C.
Procedure: Rat or human lung (3 gm) was prepared as a modification of […] et al. (Biochemical Pharmacology 33: 3471 (1984)). Tissues were removed and placed in cold phosphate-saline (3×). Material was minced and homogenized in 20 volumes (w/v) of 0.5 mM tris HCl. 50 mM mannitol, pH 7.0. Calcium chloride was added to the homogenate to give a final concentration of 10 mM. The material was filtered through a guaze pad to remove loose connective tissue. Filtrate was spun in a Beckman centrifuge (3,000×g) for thirty minutes. The resultant supernatant fraction was spun in a Beckman L7-65 ultracentrifuge (43,000×g, 30 min) to spin down membranes. The centrifugation step was repeated on the membrane pellet fraction two additional times. The pellet was reconstituted in 4 ml of the tris mannitol buffer and stored at -70° C. Protein was determined by the method of Bradford. Bradykinin antagonists were prepared at 1 mM concentration in a phosphate-buffered saline solution (phosphate saline, 2.6 mM KH2 PO4, 10.42 mM Na2 HPO4, 0.1454M NaCl, pH. 7.2). Aliquots (10 μl) of the compound were added to 90 μl of the tissue samples in Eppendorf tubes. Samples were incubated various time points at 37° C. At each time point protein was precipitated by addition of acetonitrile, acetonitrile made 0.1M HCl or 10% (v/v) trifluoroacetic acid in water (100 μl). Tubes were spun (14,000 rpm, 10 min) in an Eppendorf Model 5415C microcentrifuge. Samples were filtered and analyzed using reverse-phase HPLC (C18 column 4.6×150 mm) and a 13.5% to 90% acetonitrile gradient in 0.1% TFA. Compound half-life was determined by analysis of raw data using ENZFIT application software (Elsevier).

[2] = Stability in rat kidney brush border microvilli; assay type: in vitro ADME; settings: Rat kidney Brush Border, 37° C.
Procedure: Kidney membranes were prepared as indicated in the literature (Booth et al., Biochemical Journal, 142: 575 (1974)). Rat kidneys were obtained after sacrifice and rinsed in several volumes of a 2 mM tris, 10 mM mannitol buffer, pH 7.1. Cortical material was carefully removed and homogenized in ten volumes of the buffer. The homogenate was spun in a IEC Centra-8 refrigerated centrifuge. (4° C., 200×g). The supernatant was made 10 mM with respect to MgCl2. The supernatant material was subjected to further centrifugation as indicated: [drawing 2] Pellet resuspended in tris-mannitol buffer. Protein concentration was determined by the method of Bradford (Anal. Biochem., 72:248-254 (1976)). Bradykinin antagonists were prepared at 1 mM concentration in a phosphate-buffered saline solution (phosphate saline, 2.6 mM KH2 PO4, 10.42 mM Na2 HPO4, 0.1454M NaCl, pH. 7.2). Aliquots (10 μl) of the compound were added to 90 μl of the tissue samples in Eppendorf tubes. Samples were incubated various time points at 37° C. At each time point protein was precipitated by addition of acetonitrile, acetonitrile made 0.1M HCl or 10% (v/v) trifluoroacetic acid in water (100 μl). Tubes were spun (14,000 rpm, 10 min) in an Eppendorf Model 5415C microcentrifuge. Samples were filtered and analyzed using reverse-phase HPLC (C18 column 4.6×150 mm) and a 13.5% to 90% acetonitrile gradient in 0.1% TFA. Compound half-life was determined by analysis of raw data using ENZFIT application software (Elsevier).

Sequence “RPPGFSPFR [Bradykinin, Arg^1 -Pro^2 -Pro^3 -Gly^4 -Phe^5 -Ser^6 -Pro^7 -Phe^8 -Arg^9, reference compound]” has a Half-Life [1] of 7.8 min and a Half-Life [2] of 7.8 min.
